Among the data in US9415055B2, “Cyclic amines” (H. Lundbeck A/S, priority 2012, dated 2016) are IC50 values, retold here.

The target of this experiment is P2X7 receptor (Homo sapiens (Human), UniProt Q99572). The experiment is described as follows: P2X7 FLIPR assay: antagonism of BzATP response in 293 HEK cells stably expressing P2X7 receptor. It is filed as cell-based. As to conditions: FLIPR fluorescence (Fluo-4), agonist BzATP, 293 HEK cells stably transfected with P2X7 receptor. The procedure, abridged:
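Antagonist IC50 derived from FLIPR Tetra Fluo-4 calcium signal evoked by BzATP. Compound pre-incubation was 30 min at room temperature on P2X7-expressing HEK293 cells, seeded 24 h before in low-serum medium and dye-loaded 30 min at 37 °C then 30 min at RT.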

Sequence of P2X7 receptor (Q99572 whole entry): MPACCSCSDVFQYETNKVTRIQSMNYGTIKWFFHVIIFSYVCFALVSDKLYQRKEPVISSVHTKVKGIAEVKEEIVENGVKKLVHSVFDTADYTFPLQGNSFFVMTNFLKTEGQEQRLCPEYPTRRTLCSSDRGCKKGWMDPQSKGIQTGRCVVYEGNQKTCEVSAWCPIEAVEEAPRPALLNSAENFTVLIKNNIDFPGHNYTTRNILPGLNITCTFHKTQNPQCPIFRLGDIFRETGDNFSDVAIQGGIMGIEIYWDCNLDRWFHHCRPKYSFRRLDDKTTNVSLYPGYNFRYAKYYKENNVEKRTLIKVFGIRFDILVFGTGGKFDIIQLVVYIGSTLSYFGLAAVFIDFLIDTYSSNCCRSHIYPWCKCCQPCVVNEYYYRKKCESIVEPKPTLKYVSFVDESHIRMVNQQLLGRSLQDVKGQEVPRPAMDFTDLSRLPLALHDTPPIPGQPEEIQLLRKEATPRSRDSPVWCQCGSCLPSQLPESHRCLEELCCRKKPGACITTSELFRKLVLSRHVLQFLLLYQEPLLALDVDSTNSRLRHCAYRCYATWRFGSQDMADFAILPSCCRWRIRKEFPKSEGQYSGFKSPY

With `Cc1ncc(C(CNC(=O)c2cccc(F)c2Cl)N2CCC(F)(F)CC2)cn1` (single isomer, unassigned; (-)) [(−)2-chloro-N-[2-(4,4-difluoro-1-piperidyl)-2-(2-methylpyrim] [(−)2-chloro-3-fluoro-N-(2-(4,4-difluoropiperidin-1-yl)-2-(2-methylpyrimidin-5-yl)ethyl)benzamide], the IC50 was determined as 19 nM.
For the molecule `O=C(NCC(c1ccc(C(F)(F)F)nc1)N1CCC(F)(F)CC1)c1cccc(Cl)c1Cl` (stereo not drawn) [2,3-Dichloro-N-[2-(4,4-difluoro-1-piperidyl)-2-[6-(trifluoromethyl)-3-pyridyl]ethyl]benzamide], the IC50 is 1.3 nM. This IC50 lies about 15-fold lower than the previous one.
Then `Cc1ncc(C(CNC(=O)c2cccc(OC(F)(F)F)c2Cl)N2CCC(F)(F)CC2)cn1` (single isomer, unassigned; (-)) [(−)2-chloro-N-[2-(4,4-difluoro-1-piperidyl)-2-(2-methylpyrim] [(−)2-chloro-N-(2-(4,4-difluoropiperidin-1-yl)-2-(2-methylpyrimidin-5-yl)ethyl)-3-(trifluoromethoxy)benzamide], with 40 nM; and `Cc1ncc(C(CNC(=O)c2c(F)cccc2F)N2CCOCC2)cn1` (stereo not drawn) [2,6-difluoro-N-(2-(2-methylpyrimidin-5-yl)-2-morpholinoethyl)benzamide], with 1100 nM.
Then `O=C(NCC(c1cnc(C(F)(F)F)nc1)N1CCC(F)(F)CC1)c1cccc(F)c1Cl` (single isomer, unassigned; (-)) [(−)2-chloro-N-[2-(4,4-difluoro-1-piperidyl)-2-[2-(trifluorom] [(−)2-chloro-N-(2-(4,4-difluoropiperidin-1-yl)-2-(2-(trifluoromethyl)pyrimidin-5-yl)ethyl)-3-fluorobenzamide], with 4.2 nM; and `COc1cccc(C(=O)NCC(c2ccc(Cl)cc2)N2CCOCC2)c1Cl` (single isomer, unassigned; (-)) [(−)2-chloro-N-[2-(4-chlorophenyl)-2-morpholino-ethyl]-3-meth] [(−)2-chloro-N-(2-(4-chlorophenyl)-2-morpholinoethyl)-3-methoxybenzamide], with 1.5 nM; and `O=C(NCC(c1ccc(C(F)(F)F)nc1)N1CCOCC1)c1cccc(Cl)c1Cl` (single isomer, unassigned; (+)) [(+)2,3-dichloro-N-[2-morpholino-2-[6-(trifluoromethyl)-3-pyr] [(+)2,3-Dichloro-N-[2-morpholino-2-[6-(trifluoromethyl)-3-pyridyl]ethyl]benzamide], with 5.5 nM.
Then `O=C(NCC(c1cnc(C(F)(F)F)nc1)N1CCC(F)(F)CC1)c1c(F)cc(Cl)cc1Cl` (single isomer, unassigned; (+)) [(+)2,4-dichloro-N-[2-(4,4-difluoro-1-piperidyl)-2-[2-(triflu] [(+)2,4-dichloro-6-fluoro-N-(2-(4,4-difluoropiperidin-1-yl)-2-(2-(trifluoromethyl)pyrimidin-5-yl)ethyl)benzamide], with 4.7 nM.
Molecule `O=C(NCC(c1ccc(C(F)(F)F)nc1)N1CCOCC1)c1cccc(C(F)(F)F)c1Cl` (single isomer, unassigned; (+)) [(+)2-chloro-N-[2-morpholino-2-[6-(trifluoromethyl)-3-pyridyl] [(+)2-Chloro-N-[2-morpholino-2-[6-(trifluoromethyl)-3-pyridyl]ethyl]-3-(trifluoromethyl)benzamide] yielded an IC50 of 24 nM.
`COc1cccc(C(=O)NCC(c2ccc(C(F)F)nc2)N2CCC(F)(F)CC2)c1Cl` (single isomer, unassigned; (-)) [(−)2-chloro-N-[2-[6-(difluoromethyl)-3-pyridyl]-2-(4,4-diflu] [(−)2-chloro-3-methoxy-N-(2-(2-(difluoromethyl)pyridin-5-yl)-2-(4,4-difluoropiperidin-1-yl)ethyl)benzamide] yielded an IC50 of 1.9 nM.
`Cc1ncc(C(CNC(=O)c2ccccc2Cl)N2CCC(F)(F)CC2)cn1` (single isomer, unassigned; (+)) [(+)2-chloro-N-[2-(4,4-difluoro-1-piperidyl)-2-(2-methylpyrim] [(+)2-chloro-N-[2-(4,4-difluoro-1-piperidyl)-2-(2-methylpyrimidin-5-yl)ethyl]benzamide] showed an IC50 of 13 nM.
Then `CCc1ncc(C(CNC(=O)c2cccc(Cl)c2Cl)N2CCC(F)(F)CC2)cn1` (single isomer, unassigned; (-)) [(−)2,3-dichloro-N-[2-(4,4-difluoro-1-piperidyl)-2-(2-ethylpy] [(−)2,3-dichloro-N-(2-(4,4-difluoropiperidin-1-yl)-2-(2-ethylpyrimidin-5-yl)ethyl)benzamide], with 4.9 nM; and `O=C(NCC(c1cnc(C(F)(F)F)nc1)N1CCOCC1)c1ccccc1F` (single isomer, unassigned; (-)) [(−)2-Fluoro-N-[2-morpholino-2-[2-(trifluoromethyl)pyrimidin-5-yl]ethyl]benzamide], with 44 nM; and `Cc1ncc(C(CNC(=O)c2cccc(Cl)c2Cl)N2CCC(Cl)CC2)cn1` (stereo not drawn) [2,3-dichloro-N-(2-(4-chloropiperidin-1-yl)-2-(2-methylpyrimidin-5-yl)ethyl)benzamide], with 5.7 nM.
Then `O=C(NCC(c1ccc(C(F)F)nc1)N1CCC(F)(F)CC1)c1c(Cl)cccc1Cl` (single isomer, unassigned; (-)) [(−)2,6-dichloro-N-[2-[6-(difluoromethyl)-3-pyridyl]-2-(4,4-d] [(−)2,6-dichloro-N-(2-(2-(difluoromethyl)pyridin-5-yl)-2-(4,4-difluoropiperidin-1-yl)ethyl)benzamide], with 5.5 nM; and `O=C(NCC(c1cnc(C(F)(F)F)nc1)N1CCC(F)(F)CC1)c1c(Cl)cccc1Cl` (single isomer, unassigned; (-)) [(−)2,6-dichloro-N-[2-(4,4-difluoro-1-piperidyl)-2-[2-(triflu] [(−)2,6-dichloro-N-(2-(4,4-difluoropiperidin-1-yl)-2-(2-(trifluoromethyl)pyrimidin-5-yl)ethyl)benzamide], with 6.9 nM.
`O=C(NCC(c1ccc(F)nc1)N1CCC(F)(F)CC1)c1ccccc1Cl` (stereo not drawn) [2-chloro-N-[2-(4,4-difluoro-1-piperidyl)-2-(6-fluoro-3-pyridyl)ethyl]benzamide] registered an IC50 of 4 nM.
Molecule `O=C(NCC(c1ccc(Cl)nc1)N1CCOCC1)c1cccc(Cl)c1Cl` (stereo not drawn) [2,3-Dichloro-N-[2-(6-chloro-3-pyridyl)-2-morpholino-ethyl]benzamide] registered an IC50 of 3.9 nM.
Then `COc1ccc(C(CNC(=O)c2cccc(Cl)c2Cl)N2CCOCC2)cc1` (stereo not drawn) [2,3-Dichloro-N-[2-(4-methoxy-phenyl)-2-morpholin-4-yl-ethyl]-benzamide], with 13 nM; and `COc1cccc(C(=O)NCC(c2cnc(C)nc2)N2CCC(F)(F)CC2)c1Cl` (single isomer, unassigned; (-)) [(−)2-chloro-N-[2-(4,4-difluoro-1-piperidyl)-2-(2-methylpyrim] [(−)2-chloro-3-methoxy-N-(2-(4,4-difluoropiperidin-1-yl)-2-(2-methylpyrimidin-5-yl)ethyl)benzamide], with 11 nM; and `CCc1ncc(C(CNC(=O)c2ccccc2Cl)N2CCC(F)(F)CC2)cn1` (single isomer, unassigned; (+)) [(+)2-chloro-N-[2-(4,4-difluoro-1-piperidyl)-2-(2-ethylpyrimi] [(+)2-chloro-N-(2-(4,4-difluoropiperidin-1-yl)-2-(2-ethylpyrimidin-5-yl)ethyl)benzamide], with 12 nM.
On to `Cc1ccc(C(CNC(=O)c2cccc(Cl)c2Cl)N2CCOCC2)cn1` (single isomer, unassigned; (+)) [(+)2,3-Dichloro-N-[2-(6-methyl-3-pyridyl)-2-morpholino-ethyl]benzamide], for which the IC50 is 44 nM.
Then `CC1(C)CCN(C(CNC(=O)c2cccc(F)c2Cl)c2cnc(C(F)(F)F)nc2)CC1` (stereo not drawn) [2-chloro-N-[2-(4,4-dimethyl-1-piperidyl)-2-[2-(trifluoromethyl)pyrimidin-5-yl]ethyl]-3-fluoro-benzamide], with 3600 nM; and `Cc1ncc(C(CNC(=O)c2cccc(Cl)c2Cl)N2CCCC(C)C2)cn1` (stereo not drawn) [2,3-dichloro-N-(2-(3-methylpiperidin-1-yl)-2-(2-methylpyrimidin-5-yl)ethyl)benzamide], with 170 nM; and `O=C(NCC(c1cnc(C(F)F)nc1)N1CCOCC1)c1cccc(F)c1Cl` (single isomer, unassigned; (-)) [(−)2-chloro-N-[2-[2-(difluoromethyl)pyrimidin-5-yl]-2-morpho] [(−)2-chloro-3-fluoro-N-(2-(2-(difluoromethyl)pyrimidin-5-yl)-2-morpholinoethyl)benzamide], with 38 nM.
For `Cc1ccccc1C(=O)NCC(c1ccc(Cl)cc1)N1CCC(F)(F)CC1` (stereo not drawn) [N-[2-(4-Chloro-phenyl)-2-(4,4-difluoro-piperidin-1-yl)-ethyl]-2-methyl-benzamide], the IC50 amounted to 2 nM.
Then `O=C(NCC(c1cnc(C(F)F)nc1)N1CCOCC1)c1ccccc1Cl` (single isomer, unassigned; (+)) [(+)2-chloro-N-[2-[2-(difluoromethyl)pyrimidin-5-yl]-2-morpho] [(+)2-chloro-N-(2-(2-(difluoromethyl)pyrimidin-5-yl)-2-morpholinoethyl)benzamide], with 60 nM; and `Cc1ccc(Cl)c(C(=O)NCC(c2ccncc2)N2CCOCC2)c1` (stereo not drawn) [2-Chloro-5-methyl-N-(2-morpholin-4-yl-2-pyridin-4-yl-ethyl)-benzamide], with 2700 nM.
Then `Cc1ncc(C(CNC(=O)c2cccc(Cl)c2Cl)N2CCOCC2)cn1` (single isomer, unassigned; (-)) [(−)2,3-dichloro-N-[2-(2-methylpyrimidin-5-yl)-2-morpholino-e] [(−)2,3-Dichloro-N-[2-(2-methylpyrimidin-5-yl)-2-morpholino-ethyl]benzamide], with 27 nM.
`O=C(NCC(c1ccncc1)N1CCOCC1)c1cccc(Cl)c1Cl` (stereo not drawn) [2,3-Dichloro-N-(2-morpholin-4-yl-2-pyridin-4-yl-ethyl)-benzamide] had an IC50 of 750 nM.

As usually defined, the IC50 is the point on the concentration scale where inhibition reaches its midpoint.
